Measured values taken from patent publication US10758534B2 (Vertex Pharmaceuticals Incorporated, priority 2014, dated 2020).

Target: T1, F508del (Homo sapiens, UniProt P13569, DEL508-508)
T1 construct: expressed in transfected cells
Assay: Protocol 1: membrane potential optical assay (FLIPR III, voltage sensing dye), identification of potentiator compounds
Format: cell-based
Settings: Table 3, compounds of Table 1
Method in brief: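 Read-out: change in voltage-sensing dye fluorescence (FLIPR III) as a measure of F508del conductance. Temperature-corrected (27° C, 24 hrs) NIH 3T3 cells expressing F508del are pretreated with potentiators, dye-loaded, then stimulated with forskolin under a chloride ion gradient using chloride-free gluconate bath.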

T1 sequence (P13569 with tags, fused parts or gaps DEL508-508): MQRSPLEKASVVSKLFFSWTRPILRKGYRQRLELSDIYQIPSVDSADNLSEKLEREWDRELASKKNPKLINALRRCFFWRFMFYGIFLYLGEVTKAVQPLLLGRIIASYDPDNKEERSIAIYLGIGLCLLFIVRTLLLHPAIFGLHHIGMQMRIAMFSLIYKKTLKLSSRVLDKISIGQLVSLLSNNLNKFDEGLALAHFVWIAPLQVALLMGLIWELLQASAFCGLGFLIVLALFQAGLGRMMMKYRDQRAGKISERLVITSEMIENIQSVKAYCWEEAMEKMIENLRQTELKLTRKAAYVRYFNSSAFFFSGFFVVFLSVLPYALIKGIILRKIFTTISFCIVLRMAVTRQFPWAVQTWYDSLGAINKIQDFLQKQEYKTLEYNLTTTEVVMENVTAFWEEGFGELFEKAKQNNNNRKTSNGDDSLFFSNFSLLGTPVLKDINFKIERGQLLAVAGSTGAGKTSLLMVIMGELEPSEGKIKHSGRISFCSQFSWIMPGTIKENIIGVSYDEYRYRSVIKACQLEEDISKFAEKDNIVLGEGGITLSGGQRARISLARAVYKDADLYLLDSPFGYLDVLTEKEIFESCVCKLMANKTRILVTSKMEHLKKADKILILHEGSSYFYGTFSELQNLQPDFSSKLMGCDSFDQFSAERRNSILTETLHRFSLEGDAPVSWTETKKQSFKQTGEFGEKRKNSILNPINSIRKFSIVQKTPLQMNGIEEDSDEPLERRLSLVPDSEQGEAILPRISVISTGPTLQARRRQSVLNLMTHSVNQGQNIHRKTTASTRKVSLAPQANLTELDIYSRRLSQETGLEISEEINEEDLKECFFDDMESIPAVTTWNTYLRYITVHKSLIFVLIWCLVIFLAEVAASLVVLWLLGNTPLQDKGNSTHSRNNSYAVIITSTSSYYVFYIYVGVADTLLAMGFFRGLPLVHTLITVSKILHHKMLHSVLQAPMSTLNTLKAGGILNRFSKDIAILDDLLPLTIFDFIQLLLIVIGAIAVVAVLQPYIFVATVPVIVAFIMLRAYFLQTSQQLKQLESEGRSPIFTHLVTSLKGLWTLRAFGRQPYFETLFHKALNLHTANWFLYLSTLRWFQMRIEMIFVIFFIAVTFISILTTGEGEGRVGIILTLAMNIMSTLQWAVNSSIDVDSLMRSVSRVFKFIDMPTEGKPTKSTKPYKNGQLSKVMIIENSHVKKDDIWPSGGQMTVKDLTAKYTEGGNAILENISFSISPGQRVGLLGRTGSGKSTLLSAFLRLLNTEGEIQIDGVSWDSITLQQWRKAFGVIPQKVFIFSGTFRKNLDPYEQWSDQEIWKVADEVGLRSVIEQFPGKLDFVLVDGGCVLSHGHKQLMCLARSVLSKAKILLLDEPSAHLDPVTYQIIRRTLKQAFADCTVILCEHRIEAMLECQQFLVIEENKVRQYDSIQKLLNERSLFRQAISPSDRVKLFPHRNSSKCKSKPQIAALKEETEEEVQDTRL

Compound: Cc1cccc(C)c1Cn1nc(C(C)(C)C)cc1C(=O)NS(=O)(=O)c1cccc2cc[nH]c12 [Compound 1358, 5-tert-butyl-2-[(2,6-dimethylphenyl)methyl]-N-(1H-indol-7-ylsulfonyl)pyrazole-3-carboxamide]
- EC30: +++ (“+++” means <3 uM)

Compound: CC(C)COc1cc(F)cc(-c2ccc(C(=O)NS(=O)(=O)N3CC[C@@H](N)C3)c(N3C[C@@H](C)CC3(C)C)n2)c1 [Compound 1360, N-[(3R)-3-aminopyrrolidin-1-yl]sulfonyl-6-(3-fluoro-5-isobutoxy-phenyl)-2-[(4S)-2,2,4-trimethylpyrrolidin-1-yl]pyridine-3-carboxamide]
- EC30: +++ (“+++” means <3 uM)

Compound: CC(C)COc1cc(F)cc(-c2ccc(C(=O)NS(=O)(=O)c3cccc(N)n3)c(OC(C)CC3CCOCC3)n2)c1 (centres unmarked) [Compound 1361, N-[(6-amino-2-pyridyl)sulfonyl]-6-(3-fluoro-5-isobutoxy-phenyl)-2-(1-methyl-2-tetrahydropyran-4-yl-ethoxy)pyridine-3-carboxamide]
- EC30: +++ (“+++” means <3 uM)

Compound: CC(C)COc1cc(F)cc(-c2ccc(C(=O)NS(=O)(=O)c3cccc(N)n3)c(N3C[C@@H](F)C[C@H]3C)n2)c1 [Compound 1362, N-[(6-amino-2-pyridyl)sulfonyl]-6-(3-fluoro-5-isobutoxy-phenyl)-2-[(2R,4S)-4-fluoro-2-methyl-pyrrolidin-1-yl]pyridine-3-carboxamide]
- EC30: +++ (“+++” means <3 uM)

Compound: CCOc1nc(-c2ccc(C(=O)NS(=O)(=O)c3cccc(N)n3)c(N3CC(C)CC3(C)C)n2)ccc1C (centres unmarked) [Compound 1363, N-[(6-amino-2-pyridyl)sulfonyl]-6-(6-ethoxy-5-methyl-2-pyridyl)-2-(2,2,4-trimethylpyrrolidin-1-yl)pyridine-3-carboxamide]
- EC30: +++ (“+++” means <3 uM)

Compound: CC1CN(c2nc(C(C)(C)C)c(-c3ccccc3)cc2C(=O)NS(=O)(=O)c2cccc(N)n2)C(C)(C)C1 (centres unmarked) [Compound 1364, N-[(6-amino-2-pyridyl)sulfonyl]-6-tert-butyl-5-phenyl-2-(2,2,4-trimethylpyrrolidin-1-yl)pyridine-3-carboxamide]
- EC30: +++ (“+++” means <3 uM)

Compound: CC(C)COc1cc(F)cc(-c2ccc(C(=O)NS(=O)(=O)c3cccc(N)n3)c(OC(C)(C)Cc3ccccc3)n2)c1 [Compound 1365, N-[(6-amino-2-pyridyl)sulfonyl]-2-(1,1-dimethyl-2-phenyl-ethoxy)-6-(3-fluoro-5-isobutoxy-phenyl)pyridine-3-carboxamide]
- EC30: +++ (“+++” means <3 uM)

Compound: Cc1cc(C)c(Oc2nc(C3=CCN(C(=O)OC(C)C)CC3)ccc2C(=O)NS(=O)(=O)c2cccc(N)n2)c(C)c1 [Compound 1366, isopropyl 4-[5-[(6-amino-2-pyridyl)sulfonylcarbamoyl]-6-(2,4,6-trimethylphenoxy)-2-pyridyl]-3,6-dihydro-2H-pyridine-1-carboxylate]
- EC30: +++ (“+++” means <3 uM)

Compound: CCCc1ccc(S(=O)(=O)NC(=O)C2(C)c3cccc(OCC)c3CN2Cc2c(C)cc(C)cc2C)cc1N (centres unmarked) [Compound 1367, N-(3-amino-4-propyl-phenyl)sulfonyl-4-ethoxy-1-methyl-2-[(2,4,6-trimethylphenyl)methyl]isoindoline-1-carboxamide]
- EC30: +++ (“+++” means <3 uM)

Compound: CC(C)COc1cc(F)cc(-c2ccc(C(=O)NS(=O)(=O)c3cccc(N)n3)c(C3=CC(C)(C)OC(C)(C)C3)n2)c1 [Compound 1368, N-[(6-amino-2-pyridyl)sulfonyl]-6-(3-fluoro-5-isobutoxy-phenyl)-2-(2,2,6,6-tetramethyl-3H-pyran-4-yl)pyridine-3-carboxamide]
- EC30: +++ (“+++” means <3 uM)

Compound: C[C@@H]1CN(c2nc(C3=CC(C)(C)OCC3)ccc2C(=O)NS(=O)(=O)c2cccc(N)n2)C(C)(C)C1 [Compound 1369, N-[(6-amino-2-pyridyl)sulfonyl]-6-(6,6-dimethyl-2,3-dihydropyran-4-yl)-2-[(4S)-2,2,4-trimethylpyrrolidin-1-yl]pyridine-3-carboxamide]
- EC30: +++ (“+++” means <3 uM)

Compound: CCC1CC=C(c2ccc(C(=O)NS(=O)(=O)c3cccc(N)n3)c(Oc3c(C)cc(C)cc3C)n2)CC1 (centres unmarked) [Compound 1370, N-[(6-amino-2-pyridyl)sulfonyl]-6-(4-ethylcyclohexen-1-yl)-2-(2,4,6-trimethylphenoxy)pyridine-3-carboxamide]
- EC30: +++ (“+++” means <3 uM)

Compound: C[C@@H]1CN(c2nc(C3=CCCN(C(=O)OC(C)(C)C)C3)ccc2C(=O)NS(=O)(=O)c2cccc(N)n2)C(C)(C)C1 [Compound 1371, tert-butyl 5-[5-[(6-amino-2-pyridyl)sulfonylcarbamoyl]-6-[(4S)-2,2,4-trimethylpyrrolidin-1-yl]-2-pyridyl]-3,6-dihydro-2H-pyridine-1-carboxylate]
- EC30: +++ (“+++” means <3 uM)

Compound: CCOc1cccc2c1CN(Cc1c(C)cc(C)cc1C)[C@]2(C)C(=O)NS(=O)(=O)c1cccc(N)n1 [Compound 1372, (1S)—N-[(6-amino-2-pyridyl)sulfonyl]-4-ethoxy-1-methyl-2-[(2,4,6-trimethylphenyl)methyl]isoindoline-1-carboxamide]
- EC30: +++ (“+++” means <3 uM)

Compound: C=Cc1cc(C(=O)NS(=O)(=O)c2cccc(N)n2)c(N2C[C@@H](C)CC2(C)C)nc1C(C)(C)C [Compound 1373, N-[(6-amino-2-pyridyl)sulfonyl]-6-tert-butyl-2-[(4S)-2,2,4-trimethylpyrrolidin-1-yl]-5-vinyl-pyridine-3-carboxamide]
- EC30: +++ (“+++” means <3 uM)

Compound: CC(C)COc1cc(F)cc(-c2ccc(C(=O)NS(=O)(=O)c3cccc(N)n3)c(OC(C)C3CCCC3)n2)c1 (centres unmarked) [Compound 1374, N-[(6-amino-2-pyridyl)sulfonyl]-2-(1-cyclopentylethoxy)-6-(3-fluoro-5-isobutoxy-phenyl)pyridine-3-carboxamide]
- EC30: +++ (“+++” means <3 uM)

Compound: CC(C)Oc1ccc(-c2ccc(C(=O)NS(=O)(=O)c3ccc(O)c(N)n3)c(N3[C@H](C)CC[C@@H]3C)n2)cn1 [Compound 1375, N-[(6-amino-5-hydroxy-2-pyridyl)sulfonyl]-2-[(2S,5R)-2,5-dimethylpyrrolidin-1-yl]-6-(6-isopropoxy-3-pyridyl)pyridine-3-carboxamide]
- EC30: ++ (“++” means between 3 uM and 10 uM)

Compound: Cc1cc(C)c(Oc2nc(C3CCCCCC3)ccc2C(=O)NS(=O)(=O)c2cccc(N)n2)c(C)c1 [Compound 1376, N-[(6-amino-2-pyridyl)sulfonyl]-6-cycloheptyl-2-(2,4,6-trimethylphenoxy)pyridine-3-carboxamide]
- EC30: +++ (“+++” means <3 uM)

Compound: CCCC/C=C/c1cc(C(=O)NS(=O)(=O)c2cccc(N)n2)c(N2C[C@@H](C)CC2(C)C)nc1C(C)(C)C [Compound 1377, N-[(6-amino-2-pyridyl)sulfonyl]-6-tert-butyl-5-[(E)-hex-1-enyl]-2-[(4S)-2,2,4-trimethylpyrrolidin-1-yl]pyridine-3-carboxamide]
- EC30: +++ (“+++” means <3 uM)

Compound: C[C@@H]1CN(c2nc(C3CC4CCC3C4)ccc2C(=O)NS(=O)(=O)c2cccc(N)n2)C(C)(C)C1 (stereo partly drawn) [Compound 1378, NV [(6-amino-2-pyridyl)sulfonyl]-6-norbornan-2-yl-2-[(4S)-2,2,4-trimethylpyrrolidin-1-yl]pyridine-3-carboxamide]
- EC30: +++ (“+++” means <3 uM)
